# Tests used:
# C3H10T1/2 adipocytes [1] = test: Lipolysis in adipocytes treated with β-AR-agonists; format: cell-based; details: adipocytes, dose response; read-out: EC50 (nM) Lipolysis
# Experimental: (§1) Human subcutaneous adipocytes were purchased from Zen-Bio, Inc. (Research Triangle Park, N.C.). C3H10T1/2 clone 8 fibroblasts were differentiated into adipocytes as previously described (Lenhard et al, Biochem. Pharmacol. 54:801-808 (1997), Paulik and Lenhard, Cell Tissue Res. 290:79-87 (1997)). After 7 days in culture, triglyceride accumulation was determined by adding lipoprotein lipase and GPO-Trinder reagent (assay kit 337-B, Sigma Diagnostics, St. Louis, Mo.) to the cells (50 μl/cm^2) and incubating the lysates at 37° C. for 2 hours. The optical density was measured using a spectrophotometer set at a wavelength of 540 nm. Lipolysis was measured as previously described (Lenhard et al, Biochem. Pharmacol. 54:801-808 (1997)).
# (§2) As a control, the effects of β-AR-agonists on lipolysis was also measured. […] In general, this expands to measuring thermogenic activity of both catabolic and anabolic mediated-effects of potential drug candidates.
# C3H10T1/2 adipocytes [2] = test: Infrared thermography of thermogenesis in cultured adipocytes (β-AR-agonists); format: cell-based; details: for stimulation of thermogenesis: C3H10T1/2 adipocytes; for EC50: adipocytes, infrared thermography, dose response, read-out: EC50 (nM) Thermogenesis
# Experimental: as §1
# Heat generation was measured using a Stirling cooled Agema Thermovision 900 Infrared System AB (Marietta, Ga.) equipped with a SW Scanner and 40°×25° lens which detects a 2-5.4 micron spectral response. […] The focal distance was 6 cm. Images were captured using a recurs function set at 16 or an averaging function set at 32. The data was analyzed using OS-9 advanced systems and ERIKA 2.00 software according to the manufacturer's specifications (FLIR Infrared Systems AB, Danderyd, Sweden). Thermography of adipocytes was performed by maintaining the ambient temperature of the cultured cells at 37±0.02° C. using a Queue Systems Inc. (Parkersburg, W.Va.) incubator, model QWJ500SABA. Spectral analysis of yeast was performed at 30±0.02° C. using the same incubator system. After treating the cells with experimental agents (e.g., rotenone etc.), the temperature was equilibrated for 10 minutes in the incubator before measuring real time thermogenesis for all microtiter plate applications. Various color scales in the visible wavelength were used to depict the temperature fluctuations of the recorded images. Although temperature scales are constant, the color scale images are variable and can be adjusted with level and span controls.
# The β3-AR-agonists are candidate therapeutic agents for the treatment of diabetes and obesity. Although, the mechanism of action for these agents is thought to involve increased metabolic rate (Scarpace, Ann. N.Y. Acad. Sci. 813:111-116 (1997)), it has yet to be shown that β-AR-agonists increase heat output by adipocytes. Therefore, it was determined whether infrared imaging could be used to monitor the effects of β-AR-agonists on thermogenesis in cultured adipocytes.
# as §2
# C3H10T1/2 cells = test: Infrared thermography of heat production in differentiating C3H10T1/2 cells (PPARγ agonists); format: cell-based; details: Mus musculus, C3H 10T1/2, in the presence of insulin and 9-cis retinoic acid (FIG. 7), read-out: EC50(μM), thermogenesis and lipogenesis assays
# Experimental: as §1
# Heat generation was measured using a Stirling cooled Agema Thermovision 900 Infrared System AB (Marietta, Ga.) equipped with a SW Scanner and 40°×25° lens which detects a 2-5.4 micron spectral response. […] The focal distance was 6 cm. Images were captured using a recurs function set at 16 or an averaging function set at 32. The data was analyzed using OS-9 advanced systems and ERIKA 2.00 software according to the manufacturer's specifications (FLIR Infrared Systems AB, Danderyd, Sweden). […] Various color scales in the visible wavelength were used to depict the temperature fluctuations of the recorded images. […]
# intrascapular region = test: Intrascapular thermogenesis in inbred mouse strains on high and low fat diets; format: in vivo, mice; details: 1 mg/kg i.p., 60 min
# Experimental: (§3) Male AKR/J, C57BL/6J, and SWR/J mice were purchased from 4-8 weeks of age from Jackson Laboratories (Bar Harbor, Me.). Mice were fed high and low fats diets containing high sucrose as defined by Surwit et al., (Metabolism 44(5):645-651 (1995)). After 14 weeks on these diets, the intrascapular fur was shaved, the animals were dosed (intraperitineal) with 1 mg/kg of BRL37344, and the animals were anesthetized with isofluorane. Nude mice (BALB/C) were 6-8 weeks old and were dosed with inhalant two times before thermal profiling. The Lewis rat strain (200-250 g) were used for both the MED and inflammation experiments. Infrared thermographic images and temperature calculations were recorded using an Agema Thermovision 900 Infrared System.
# One environmental component that alters the metabolic rate in individuals with a genetic predisposition towards diabetes, dyslipidemia, or obesity is diet. It was unknown if thermography could be used to measure the effects of diet on drug-induced changes in heat production in animals with different genotypes. Thus, three different inbred strains of mice, AKR/J, C57BL/6J, and SWR/J, were maintained on high and low fat diets for 14 weeks before treating with the β3-adrenoceptor agonist, BRL37344. The heat produced in the intrascapular region was measured before and after 60 min treatment using infrared thermography. […] Thus, this technique may be used to select, rank order for the efficacy and potency of compounds with the, desired properties for a given environment or genetic background. Similarly, this technique can be used to identify, rank, and select animals and environmental factors with the desired properties for a given drug candidate.
# [3] = test system: interscapular brown adipose tissue (IBAT); test: IBAT thermogenesis in ob/ob mice, shaved or skin replaced with IR transparent adhesive; format: in vivo; details: 0.01-1 mg/kg i.g., 1 hour
# Experimental: FIG. 28. Interscapular brown adipose tissue (IBAT) thermogenesis in ob/ob mice 1 hour after treatment with the […]-adrenoceptor agonist BRL37344 detected by IR thermography. Ten week old male ob/ob mice (Jackson Labs, Bar Harbor, Me.) were housed 5 animals/cage at 72° F. and 50% relative humidity with a 12 h light and dark cycle. They were fed chow diet (NIH R&M/Auto 6F-Ovals 5K67, PMI Feeds® Inc., Richmond, Ind.) and water ad libitum. Mice were dosed at 0.0, 0.01, 0.1, 0.3, or 1 mg/kg BRL37344 in water vehicle (0.25 mL i.g.; n=20 per dose). All animals were anesthetized with isofluorane and shaved to expose the area of interest prior to IR scanning. […] Images were recorded at 1 min intervals for 5 min with a frame averaging rate of 32 frames/sec. Acquired images were analyzed for average temperatures using an in-house image processing software application (Roboimage). Data are expressed as either average temperature/area or delta temperature/area (drug treated-vehicle treated).
# The top panels show IR images of the interscapular regions of mice whose skin was removed and Bioclusive adhesive covering placed over the IBAT or mice who have been shaved only following treatment with BRL37344 at the doses indicated for 1 hour. Quantification of IR signal in the IBAT region is shown in the bottom panel. […]
# whole back = test: Infrared thermography of drug-induced thermogenesis in humans; format: in vivo, human; details: 60 minutes after 0.6-0.7 mg/kg
# Experimental: The effect of ephedrine on thermogenesis in two human subjects was detected by infrared Imaging 60 minutes after treatment with ephedrine at a dose of 0.6-0.7 mg/kg. […] Thus, infrared thermography can be used as a non-invasive surrogate assay to evaluate the efficacy, potency, pharmacokinetics, pharmocodynamics of drugs in clinical studies.
# limb inflammation = test: PGPS arthritis model, limb thermogenesis; format: in vivo, rat
# Experimental: as §3
# Arthritis is a disease characterized by inflammation of the joints and can be treated with antiinflammatory agents. Because inflammatory responses are associated with increased thermogenesis at the site of the response, arthritis and the efficacy of arthritis drugs can be monitored by thermography. […] The other limb was not treated. […] Thus, infrared thermography is a useful tool for monitoring inflammatory responses and the efficacy of antiinflammatory agents as well as providing a method for screening, selecting and evaluating the effectiveness of drug candidates for treating arthritic indications.
# yeast = format: cell-based
# Experimental: Heat generation was measured using a Stirling cooled Agema Thermovision 900 Infrared System AB (Marietta, Ga.) equipped with a SW Scanner and 40°×25° lens which detects a 2-5.4 micron spectral response. […] The focal distance was 6 cm. Images were captured using a recurs function set at 16 or an averaging function set at 32. The data was analyzed using OS-9 advanced systems and ERIKA 2.00 software according to the manufacturer's specifications (FLIR Infrared Systems AB, Danderyd, Sweden). […] Spectral analysis of yeast was performed at 30±0.02° C. using the same incubator system. After treating the cells with experimental agents (e.g., rotenone etc.), the temperature was equilibrated for 10 minutes in the incubator before measuring real time thermogenesis for all microtiter plate applications. Various color scales in the visible wavelength were used to depict the temperature fluctuations of the recorded images. Although temperature scales are constant, the color scale images are variable and can be adjusted with level and span controls.
# human adipocytes = test: Infrared thermography of human adipocytes in 96-well plates; format: cell-based; details: dose response, relative to untreated cells
# Experimental: Heat generation was measured using a Stirling cooled Agema Thermovision 900 Infrared System AB (Marietta, Ga.) equipped with a SW Scanner and 40°×25° lens which detects a 2-5.4 micron spectral response. […] The focal distance was 6 cm. Images were captured using a recurs function set at 16 or an averaging function set at 32. The data was analyzed using OS-9 advanced systems and ERIKA 2.00 software according to the manufacturer's specifications (FLIR Infrared Systems AB, Danderyd, Sweden). Thermography of adipocytes was performed by maintaining the ambient temperature of the cultured cells at 37±0.02° C. using a Queue Systems Inc. (Parkersburg, W.Va.) incubator, model QWJ500SABA. […] After treating the cells with experimental agents (e.g., rotenone etc.), the temperature was equilibrated for 10 minutes in the incubator before measuring real time thermogenesis for all microtiter plate applications. Various color scales in the visible wavelength were used to depict the temperature fluctuations of the recorded images. Although temperature scales are constant, the color scale images are variable and can be adjusted with level and span controls.
compound,measurement,setting,value
C[C@H](Cc1ccc2c(c1)OC(C(=O)[O-])(C(=O)[O-])O2)NC[C@H](O)c1cccc(Cl)c1.[Na+].[Na+] [CL316253],EC50,C3H10T1/2 adipocytes [1],7.9 nM
same,thermogenesis versus treatment time,C3H10T1/2 adipocytes [2]; 15 min vs 18 hours treatment,greater after 15 min than after 18 hours
same,stimulation of thermogenesis,C3H10T1/2 adipocytes [2],stimulated
same,EC50,C3H10T1/2 adipocytes [2],8.9 nM
same,dose dependence of thermogenic effect,C3H10T1/2 adipocytes [2]; dose range 0.8-100 nM,dose dependent thermogenic effect
O=C1NC(=O)C(Cc2ccc3c(c2)CC[C@H](Cc2ccccc2)O3)S1 (stereo partly shown) [englitazone],EC50,C3H10T1/2 cells,> 10 µM
C[C@H](Cc1ccc(OCC(=O)O)cc1)NC[C@H](O)c1cccc(Cl)c1 [BRL37344],"thermogenic response, high vs low fat diet",intrascapular region; AKR/J mice (obesity prone),greater thermogenic response to BRL37344 when fed the higher fat diet
same,"thermogenic response, high vs low fat diet",intrascapular region; C57BL/6J mice,little difference in the thermogenic response
same,"thermogenic response, high vs low fat diet",intrascapular region; SWR/J mice (obesity resistant),greater thermogenic response when fed the lower fat diet
same,IBAT thermogenesis,[3]; shaved only,thermogenesis increased
same,IBAT thermogenesis,[3]; skin removed (peelback) and Bioclusive adhesive,demonstrate a dose-response
CN[C@@H](C)[C@H](O)c1ccccc1 [ephedrine],Delta T,whole back; subject A,0.63 °C
same,Delta T,whole back; subject B,0.46 °C
COc1ccc(CCNCC(O)COc2ccc(O)c(O)c2)cc1OC (stereo not shown) [RO363],EC50,C3H10T1/2 adipocytes [1],1000 nM
same,stimulation of thermogenesis,C3H10T1/2 adipocytes [2],less effective than CL316243 or isoproterenol
same,EC50,C3H10T1/2 adipocytes [2],956 nM
peptidoglycan polysaccharide [PGPS],thermogenesis of injected limb vs untreated limb,limb inflammation; limb injected for two weeks,higher level of thermogenesis in the treated limb than in the untreated limb
"N#CC(C#N)=NNc1ccc(OC(F)(F)F)cc1 [FCCP, carbonyl cyanide p-(trifluoromethoxy)phenylhydrazone]",thermogenesis in yeast,yeast,stimulated heat production
same,thermogenesis in human adipocytes,human adipocytes,stimulated heat production
CC[C@H]1/C=C/C=C/C[C@@H](C)[C@H](O)[C@@](C)(O)C(=O)[C@@H](C)[C@H](O)[C@@H](C)C(=O)[C@@H](C)[C@H](O)[C@@H](C)/C=C/C(=O)O[C@@H]2[C@H](C)[C@H](CC1)O[C@]1(CC[C@H](C)[C@H](C[C@@H](C)O)O1)[C@H]2C [Oligomycin],EC50,"C3H10T1/2 adipocytes [2]; Mus musculus, C3H 10T1/2",9.2 nM
C[C@@H]1C[C@@H]([C@H](O)CC2CC(=O)NC(=O)C2)C(=O)[C@@H](C)C1 [cycloheximide],effect on β3-AR-mediated thermogenesis,C3H10T1/2 adipocytes [2]; 100 μM,had no effect
C[C@]12C=CC(=O)C=C1CC[C@@H]1[C@@H]2[C@@H](O)C[C@@]2(C)[C@H]1CC[C@]2(O)C(=O)CO [prednisolone],thermogenesis of arthritic limb after treatment,"limb inflammation; PGPS arthritis model, 6 mg/kg p.o.",reverses the elevation in thermogenesis

# — patent US6881584B1, “Infrared thermography” (SmithKline Beecham Corporation, priority 1998, dated 2005)
